Reference: ChEMBL document CHEMBL1201862, “PubChem BioAssay data set” (2004)
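Cultured in 96-well plates, cells were exposed to test compound for 48 hours across five concentrations. GI50 marks 50% less growth.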 Active and inactive are the calls of the source. No stated cut-off is given here; in the data, active = GI50 up to about 1.1 µM and inactive = higher.

Key:
Experiment in all cases: DTP human tumour cell line panel, 48 h
NCI/ADR-RES = system: NCI/ADR-RES
HT-29 = system: HT-29
HCT-15 = system: HCT-15
NCI-H23 = system: NCI-H23
MDA-N = system: MDA-N
HOP-62 = system: HOP-62
A549 = system: A549
SN12C = system: SN12C
SK-MEL-28 = system: SK-MEL-28
T47D = system: T47D
SK-MEL-5 = system: SK-MEL-5
A498 = system: A498
MDA-MB-435 = system: MDA-MB-435
SF-539 = system: SF-539
EKVX = system: EKVX
ACHN = system: ACHN
MOLT-4 = system: MOLT-4
OVCAR-3 = system: OVCAR-3
LOX IMVI = system: LOX IMVI
Hs-578T = system: Hs-578T

Row | Compound | GI50 (NCI/ADR-RES) | GI50 (HT-29) | GI50 (HCT-15) [µM] | GI50 (NCI-H23) | GI50 (MDA-N) | GI50 (HOP-62) | GI50 (A549) | GI50 (SN12C) | GI50 (SK-MEL-28) | GI50 (T47D) | GI50 (SK-MEL-5) | GI50 (A498) | GI50 (MDA-MB-435) | GI50 (SF-539) | GI50 (EKVX) | GI50 (ACHN) | GI50 (MOLT-4) | GI50 (OVCAR-3) | GI50 (LOX IMVI) | GI50 (Hs-578T)
1 | CC1=CSC(O)(c2ccc(Cl)cc2)c2noc(=O)n21 (stereo not drawn) | 53.7 µM (inactive) | > 100 µM (inactive) | 72.9 | 48.4 µM (inactive) | 88.3 µM (inactive) | > 100 µM (inactive) | > 100 µM (inactive) | > 100 µM (inactive) | 29.2 µM (inactive) | 54.8 µM (inactive) | 59.6 µM (inactive) | > 100 µM (inactive) | 30.1 µM (inactive) | > 100 µM (inactive) | > 100 µM (inactive) | > 100 µM (inactive) | > 100 µM (inactive) | 72.1 µM (inactive) |  | 
2 | CC(=O)c1sc2c(c1OC(=O)c1ccc(Cl)cc1)c(=O)n(-c1ccccc1)c(=S)n2-c1ccccc1 | 4.73 µM (inactive) | 0.946 µM (active) | 9.18 | 17.5 µM (inactive) |  | 3.85 µM (inactive) | 25.4 µM (inactive) | 2.06 µM (inactive) | 2.79 µM (inactive) | 12.2 µM (inactive) | 2 µM (inactive) | 1.08 µM (active) | 4.14 µM (inactive) | 1.87 µM (inactive) | 11.4 µM (inactive) | 2.96 µM (inactive) | 1.56 µM (inactive) | 14.2 µM (inactive) | 2.32 µM (inactive) | 2.08 µM (inactive)
3 | CCCOCN1COCN/C1=N\C#N |  | 48.2 µM (inactive) | 17.1 | > 100 µM (inactive) |  | > 100 µM (inactive) | 42.3 µM (inactive) | > 100 µM (inactive) | > 100 µM (inactive) |  | > 100 µM (inactive) | > 100 µM (inactive) |  | > 100 µM (inactive) | > 100 µM (inactive) | 52.4 µM (inactive) | > 100 µM (inactive) | > 100 µM (inactive) | 24.5 µM (inactive) | 
4 | COc1ccccc1/N=N/c1c(-c2ccccc2)nn(C(=O)CC(=O)Nc2cccc(C)c2)c1-c1ccccc1 |  | 16.4 µM (inactive) | 21.1 | 24.1 µM (inactive) |  | 19.1 µM (inactive) | 26.5 µM (inactive) | 20.8 µM (inactive) | > 100 µM (inactive) |  | 18.7 µM (inactive) | 40 µM (inactive) |  | 30 µM (inactive) | 41.2 µM (inactive) | 28.4 µM (inactive) | 10.7 µM (inactive) | 16 µM (inactive) | 27.5 µM (inactive) | 
5 | CCOC(=O)C1=C(C)NC(C)=C(C(=O)OCC)C1c1ccc(C)cc1 |  | 27.8 µM (inactive) | 25.8 | 34.5 µM (inactive) | 31.8 µM (inactive) | 46.5 µM (inactive) | 47.2 µM (inactive) | 22.1 µM (inactive) | > 100 µM (inactive) | 39.9 µM (inactive) | 18.8 µM (inactive) | 40.6 µM (inactive) | 35.4 µM (inactive) | 37.1 µM (inactive) | 42.7 µM (inactive) | 43 µM (inactive) | 25.9 µM (inactive) | 21.1 µM (inactive) | 31.8 µM (inactive) | 39.2 µM (inactive)
6 | Cn1c(=O)oc2cc(C(=O)CN3CCN(Cc4ccc5c(c4)OCO5)CC3)c(Cl)cc21 | > 100 µM (inactive) |  | > 100 | > 100 µM (inactive) | > 100 µM (inactive) | > 100 µM (inactive) |  | > 100 µM (inactive) |  | > 100 µM (inactive) | > 100 µM (inactive) |  |  | > 100 µM (inactive) |  | > 100 µM (inactive) | > 100 µM (inactive) |  | 80.4 µM (inactive) | > 100 µM (inactive)
7 | Cn1c(=O)n2n(c1=O)[C@@H](c1ccccc1)[C@H]2c1ccccc1 | > 100 µM (inactive) | > 100 µM (inactive) | > 100 | 65.6 µM (inactive) |  | > 100 µM (inactive) | > 100 µM (inactive) | > 100 µM (inactive) | > 100 µM (inactive) |  | > 100 µM (inactive) | > 100 µM (inactive) |  | > 100 µM (inactive) | > 100 µM (inactive) | > 100 µM (inactive) | > 100 µM (inactive) | > 100 µM (inactive) | > 100 µM (inactive) | > 100 µM (inactive)
8 | Cc1cc(=O)n(-c2ccccc2)c(=O)o1 |  | > 100 µM (inactive) | > 100 | > 100 µM (inactive) |  | > 100 µM (inactive) | > 100 µM (inactive) | > 100 µM (inactive) | > 100 µM (inactive) |  | > 100 µM (inactive) | > 100 µM (inactive) |  | > 100 µM (inactive) | > 100 µM (inactive) | > 100 µM (inactive) | > 100 µM (inactive) | > 100 µM (inactive) | 32.8 µM (inactive) | 
9 | COC(=O)C(=O)C(C(=O)C(=O)Nc1ccc(C)cc1C)c1nc2ccccc2nc1O (stereo not drawn) |  | > 100 µM (inactive) | 31.6 | 66.8 µM (inactive) |  | 39.4 µM (inactive) | 31.7 µM (inactive) | 41.6 µM (inactive) | 51.9 µM (inactive) |  | 58.1 µM (inactive) | 19.5 µM (inactive) |  | 36.6 µM (inactive) | 17.9 µM (inactive) | 50 µM (inactive) | 32.4 µM (inactive) | 32.7 µM (inactive) | 47 µM (inactive) | 
10 | O=C(c1ccco1)N(C(=O)N1CCCCC1)c1ccccc1 | > 100 µM (inactive) | > 100 µM (inactive) | > 100 | > 100 µM (inactive) | > 100 µM (inactive) |  |  | > 100 µM (inactive) | > 100 µM (inactive) |  | > 100 µM (inactive) | > 100 µM (inactive) | > 100 µM (inactive) | > 100 µM (inactive) | > 100 µM (inactive) | > 100 µM (inactive) | > 100 µM (inactive) | > 100 µM (inactive) | > 100 µM (inactive) | > 100 µM (inactive)
11 | CC(C)(C)OC(=O)N1CCCC1=O |  | > 10 µM (inactive) | > 10 | > 10 µM (inactive) | > 10 µM (inactive) | > 10 µM (inactive) | > 10 µM (inactive) | > 10 µM (inactive) | > 10 µM (inactive) | > 10 µM (inactive) | > 10 µM (inactive) | > 10 µM (inactive) | > 10 µM (inactive) | > 10 µM (inactive) | > 10 µM (inactive) | > 10 µM (inactive) | > 10 µM (inactive) | > 10 µM (inactive) | > 10 µM (inactive) | > 10 µM (inactive)
12 | CCOP(=O)(OCC)/C(C#N)=C/c1cnc[nH]1 | > 100 µM (inactive) | > 100 µM (inactive) | > 100 | > 100 µM (inactive) |  | > 100 µM (inactive) | > 100 µM (inactive) | > 100 µM (inactive) | > 100 µM (inactive) |  | > 100 µM (inactive) | > 100 µM (inactive) | > 100 µM (inactive) | > 100 µM (inactive) | > 100 µM (inactive) | > 100 µM (inactive) | > 100 µM (inactive) | > 100 µM (inactive) | > 100 µM (inactive) | > 100 µM (inactive)
13 | CC(=O)OCC1OC(N2C(=O)C(=O)c3ccccc32)C(OC(C)=O)C(OC(C)=O)C1OC(C)=O (stereo not drawn) |  | > 100 µM (inactive) | > 100 | > 100 µM (inactive) |  | > 100 µM (inactive) | > 100 µM (inactive) | > 100 µM (inactive) | > 100 µM (inactive) |  | > 100 µM (inactive) | > 100 µM (inactive) |  | > 100 µM (inactive) | > 100 µM (inactive) | > 100 µM (inactive) | > 100 µM (inactive) | > 100 µM (inactive) | > 100 µM (inactive) | 
14 | CC(C)OC(=O)C1Cc2c([nH]c3ccccc23)C(c2ccccc2)N1 (stereo not drawn) |  | 98.4 µM (inactive) | 75.3 | 67.1 µM (inactive) |  | 23.4 µM (inactive) | 66.1 µM (inactive) | > 100 µM (inactive) | 42.5 µM (inactive) |  | 91.2 µM (inactive) | 88.5 µM (inactive) |  | > 100 µM (inactive) | 89.3 µM (inactive) | 93.8 µM (inactive) | 42.5 µM (inactive) | > 100 µM (inactive) | > 100 µM (inactive) | 
15 | N#CC1(C#N)NC(c2cccs2)C(C#N)(C#N)NC1c1cccs1 (stereo not drawn) | 77.3 µM (inactive) | 47.3 µM (inactive) | 30.7 | 55.1 µM (inactive) |  | > 100 µM (inactive) | 50.8 µM (inactive) | 43.2 µM (inactive) | 29.6 µM (inactive) | 51.2 µM (inactive) | 26.7 µM (inactive) | 20.5 µM (inactive) | 46.1 µM (inactive) | 19.9 µM (inactive) | 55.8 µM (inactive) | 25.4 µM (inactive) | 23.3 µM (inactive) | 25.2 µM (inactive) | 19.7 µM (inactive) | 43.2 µM (inactive)
16 | C[N+](C)(C)CC(=O)N/N=C(\CCC(=O)NCCc1ccccc1)CC(=O)c1ccccc1 |  | > 100 µM (inactive) | > 100 | > 100 µM (inactive) |  | > 100 µM (inactive) | > 100 µM (inactive) | > 100 µM (inactive) |  |  | > 100 µM (inactive) | > 100 µM (inactive) |  | > 100 µM (inactive) | > 100 µM (inactive) | > 100 µM (inactive) | > 100 µM (inactive) | > 100 µM (inactive) | > 100 µM (inactive) | 
17 | COc1cc(CCc2cccnc2)cc(OC)c1OC |  | > 100 µM (inactive) | > 100 | > 100 µM (inactive) |  | > 100 µM (inactive) | > 100 µM (inactive) | > 100 µM (inactive) | > 100 µM (inactive) |  | > 100 µM (inactive) | > 100 µM (inactive) |  | > 100 µM (inactive) | > 100 µM (inactive) | > 100 µM (inactive) | > 100 µM (inactive) | > 100 µM (inactive) | > 100 µM (inactive) | 
